ChEMBL document CHEMBL1287663 (Bioorg Med Chem, 2010)

Key:
[1] = Inhibition of HDAC
HeLa = experiment: Antiproliferative activity against human HeLa cells; type: functional, cell-based
K562 [2] = experiment: Cytotoxicity against human K562 cells after 72 hrs by trypan blue exclusion assay; type: functional, cell-based; conditions: K562, 72 h
Homo sapiens = species: Homo sapiens; experiment: Selectivity ratio of IC50 for human IMPDH1 to IC50 for human IMPDH2
K562 [3] = experiment: Induction of human K562 cells differentiation assessed as hemoglobin/genomic DNA level at 4 uM after 72 hrs relative to untreated control; type: functional
K562 [4] = experiment: Induction of human K562 cells differentiation assessed as hemoglobin/genomic DNA level at 0.5 uM after 72 hrs relative to untreated control; type: functional
K562 [5] = experiment: Induction of human K562 cells differentiation assessed as hemoglobin/genomic DNA level at 2 uM after 72 hrs relative to untreated control; type: functional
[6] = target: Inosine-5'-monophosphate dehydrogenase 2 (Homo sapiens, UniProt P12268); experiment: Inhibition of human IMPDH2 expressed in Escherichia coli strain BL21(DE3) after 60 mins
[7] = target: Inosine-5'-monophosphate dehydrogenase 1 (Homo sapiens, UniProt P20839); experiment: Inhibition of human IMPDH1 expressed in Escherichia coli strain BL21(DE3) after 60 mins
Sequence of Inosine-5'-monophosphate dehydrogenase 1 (P20839 whole entry): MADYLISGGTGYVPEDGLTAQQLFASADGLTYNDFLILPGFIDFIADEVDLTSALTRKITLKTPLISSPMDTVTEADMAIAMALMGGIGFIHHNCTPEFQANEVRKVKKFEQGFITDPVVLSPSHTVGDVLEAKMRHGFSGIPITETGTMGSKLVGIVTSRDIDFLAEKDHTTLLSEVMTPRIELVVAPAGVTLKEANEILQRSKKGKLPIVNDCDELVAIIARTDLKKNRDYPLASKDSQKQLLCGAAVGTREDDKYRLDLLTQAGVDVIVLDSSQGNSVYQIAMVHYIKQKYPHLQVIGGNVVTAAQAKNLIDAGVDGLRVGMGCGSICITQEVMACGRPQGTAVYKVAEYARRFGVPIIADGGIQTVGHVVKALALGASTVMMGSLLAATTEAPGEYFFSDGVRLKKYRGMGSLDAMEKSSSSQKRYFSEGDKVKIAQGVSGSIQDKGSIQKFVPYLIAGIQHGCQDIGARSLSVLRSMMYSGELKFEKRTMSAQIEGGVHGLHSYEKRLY

IMPDH2 = experiment: Selectivity ratio of IC50 for human K562 cells to IC50 for human IMPDH2; type: ADME, cell-based; conditions: K562 cells versus IMPDH2 enzyme, read-out: Ratio IC50
K562 [8] = experiment: Induction of human K562 cells differentiation assessed as hemoglobin/genomic DNA level at 1 uM after 72 hrs relative to untreated control; type: functional
K562 [9] = experiment: Induction of human K562 cells differentiation assessed as hemoglobin/genomic DNA level at 8 uM after 72 hrs relative to untreated control; type: functional
K562 [10] = experiment: Induction of human K562 cells differentiation assessed as hemoglobin/genomic DNA level at 16 uM after 72 hrs relative to untreated control; type: functional
K562 [11] = experiment: Induction of human K562 cells differentiation assessed as hemoglobin/genomic DNA level at 32 uM after 72 hrs relative to untreated control; type: functional
K562 [12] = experiment: Induction of human K562 cells differentiation assessed as hemoglobin/genomic DNA level at 0.25 uM after 72 hrs relative to untreated control; type: functional

SMILES: CCCCCCCCCCCCOc1c(C/C=C(\C)CCC(=O)NO)c(OC)c(C)c2c1C(=O)OC2
- IC50 [1]: 500 nM
- IC50 (HeLa): 1000 nM

SMILES: COc1c(C)c2c(c(OC(C)=O)c1C/C=C(\C)CCC(=O)O)C(=O)OC2
- IC50 (K562 [2]): 590 nM
- Ratio IC50 (Homo sapiens): 1
- Ratio (K562 [3]): 5.3
- Ratio (K562 [4]): 1.8
- Ratio (K562 [5]): 4.2
- IC50 [6]: 4100 nM
- IC50 [7]: 4100 nM
- selectivity ratio (IMPDH2): 0.14
- Ratio (K562 [8]): 2.9
- Ratio (K562 [9]): 6

SMILES: COc1c(C)c2c(c(O)c1C/C=C(\C)CCCO)C(=O)OC2
- IC50 (K562 [2]): 3900 nM
- Ratio (K562 [10]): 3.8
- Ratio IC50 (Homo sapiens): 0.97
- Ratio (K562 [3]): 1.3
- Ratio (K562 [11]): 4.7
- Ratio (K562 [5]): 0.7
- IC50 [6]: 790 nM
- IC50 [7]: 770 nM
- selectivity ratio (IMPDH2): 4.9
- Ratio (K562 [9]): 2.5

SMILES: COc1c(C)c2c(c(OC(C)=O)c1C/C=C(\C)CCC(=O)NO)C(=O)OC2
- IC50 [1]: 900 nM
- IC50 (HeLa): 1500 nM

SMILES: COc1c(C)c2c(c(OC)c1C/C=C(\C)CCC(=O)NO)C(=O)OC2
- IC50 [1]: 900 nM
- IC50 (HeLa): 50000 nM

SMILES: COc1c(C)c2c(c(OC)c1C/C=C(\C)CCC(=O)O)C(=O)OC2
- IC50 (K562 [2]): > 50000 nM
- Ratio (K562 [10]): 1.4
- Ratio IC50 (Homo sapiens): 0.93
- Ratio (K562 [3]): 1.1
- Ratio (K562 [11]): 1
- Ratio (K562 [5]): 1.2
- IC50 [6]: 72000 nM
- IC50 [7]: 67000 nM
- Ratio (K562 [9]): 1.1

SMILES: COc1c(C)c2c(c(O)c1C/C=C(\C)CCC(=O)NO)C(=O)OC2 [MYCOPHENOLIC HYDROXAMIC ACID]
- IC50 (K562 [2]): 2100 nM
- Ratio (K562 [10]): 1.8
- Ratio IC50 (Homo sapiens): 0.83
- Ratio (K562 [3]): 2.9
- IC50 [1]: 1000 nM
- Ratio (K562 [11]): 1.7
- IC50 (HeLa): 2000 nM
- Ratio (K562 [5]): 1
- IC50 [6]: 420 nM
- IC50 [7]: 350 nM
- selectivity ratio (IMPDH2): 5
- Ratio (K562 [8]): 0.8
- Ratio (K562 [9]): 3.2

SMILES: COc1c(C)c2c(c(O)c1C/C=C(\C)CCC(=O)O)C(=O)OC2 [MYCOPHENOLIC ACID]
- IC50 [7]: 19 nM

SMILES: C/C(=C\Cc1c(O)c(C)c2c(c1O)C(=O)OC2)CCC(=O)O
- IC50 (K562 [2]): 8200 nM
- Ratio (K562 [10]): 1.8
- Ratio IC50 (Homo sapiens): 0.88
- Ratio (K562 [3]): 1.1
- Ratio (K562 [11]): 3.1
- Ratio (K562 [5]): 1.1
- IC50 [6]: 170 nM
- IC50 [7]: 150 nM
- selectivity ratio (IMPDH2): 48
- Ratio (K562 [8]): 1.4

SMILES: COC(=O)CC/C(C)=C/Cc1c(O)c2c(c(C)c1OC)COC2=O
- IC50 (K562 [2]): 730 nM
- Ratio IC50 (Homo sapiens): 1.1
- Ratio (K562 [3]): 4.9
- Ratio (K562 [4]): 1
- Ratio (K562 [5]): 3.5
- IC50 [6]: 1400 nM
- IC50 [7]: 1500 nM
- selectivity ratio (IMPDH2): 0.52
- Ratio (K562 [8]): 2.1
- Ratio (K562 [9]): 5.6
- Ratio (K562 [12]): 1
